Measurements from patent publication US20100105864A1, “PROPHYLACTIC OR THERAPEUTIC AGENT FOR DIARRHEA” (priority 2007, published 2010).
Marks after values point to notes of the source that are not given here.

Tests used:
Balb/c mice = assay: Anticancer agent (5-FU)-induced diarrhea model; assay type: in vivo
Description: To each of Balb/c mice, an anticancer agent was administered to induce diarrhea, and γ-Glu-Val-Gly (hereinafter, referred to as “γEVG”) was studied for its inhibitory effect on diarrhea. To each of 6-week-old Balb/c mice fed with a low protein nutrient diet (4% casein diet) for 1 week, 5-FU (1 mg/animal/day) was intraperitoneally administered for consecutive 3 days. The diarrhea developed around Day 5 after the third administration of the anticancer agent, and the diarrhea appeared in all cases on Day 7. The presence or absence of diarrhea was determined based on the presence or absence of the stool in the tail head area. As the statistical test, a chi-square (χ^2) test for the control group (presence or absence of diarrhea) was employed, and p<0.05 was regarded as significant.
Each administration of 0.01% γEVG was started in free water intake at the same time as the first administration of the anticancer agent, and continued until completion of the experiment.
To each of Balb/c mice, an anticancer agent was administered to induce diarrhea, and a calcium receptor activator (hereinafter, referred to as “CaSR agonist”) was studied for its inhibitory effect on diarrhea. To each of 6-week-old Balb/c mice fed with a low protein nutrient diet (4% casein diet) for 1 week, 5-FU (1 mg/animal/day) was intraperitoneally administered for consecutive 3 days. The diarrhea developed around Day 5 after the third administration of the anticancer agent, and the diarrhea appeared in all cases on Day 7. The presence or absence of diarrhea was determined based on the presence or absence of the stool in the tail head area. As the statistical test, a chi-square (χ^2) test for the control group (presence or absence of diarrhea) was employed, and p<0.05 was regarded as significant.
The administration of the CaSR agonist was started in free water intake at the same time as the administration of the low protein nutrient diet, and continued until completion of the experiment.

rat large intestine loop = assay: Fluid absorption in rat large intestine loop method (PGE2-stimulated); assay type: in vivo, rats; conditions: injected into loop 30 minutes after PGE2 i.p.; measured after 1 hour
Description: The cecum and large intestine were extirpated from the abdomen of each of male SD (IGS) rats under pentobarbital anesthesia, and the site 5 cm away from the area just under the cecum was ligated to form a large intestine loop Immediately after the loop had been formed, PGE2 (4 μg/ml/kg, SIGMA) was intraperitoneally administered, and after 30 minutes, a medicament, which had been dissolved in 2 ml of Tyrode's solution (NaCl: 136.9 mM, KCl: 2.7 mM, CaCl2.2H2O: 1.8 mM, MgCl2.6H2O: 1.04 mM, NaH2PO4.2H2O: 0.04 mM, NaH2PO4.2H2O: 0.04 mM, glucose: 5.55 mM, NaHCO3: 11.9 mM), was injected into the prepared loop (the medicament solution was adjusted so that the pH would be 6.5 to 7.5). As a control, Tyrode's solution free of any medicament (vehicle) was administered. After 1 hour, the loop weight, the loop weight after solution removal, and the loop area were measured to calculate a solution weight per unit area remaining in the loop.
The remaining solution amount per unit area was calculated with the following equation:
Remaining solution amount per unit area(g/cm^2)=(Loop weight−Loop weight after solution removal)/Loop area.
The fluid absorption was evaluated by calculating an inhibitory rate from the following equation:
Inhibitory rate(%)=100−(Remaining solution amount per unit area under drug administration−Remaining solution amount per unit area in base(average))/(Remaining solution amount per unit area under vehicle administration(average)−Remaining solution amount per unit area in base(average))×100.
(Base=case where no stimulation is given (no treatment with PGE2))

In the case of `C[C@@H](NCCCc1cccc(C(F)(F)F)c1)c1cccc2ccccc12` [cinacalcet, (R)—N-(3-(3-(trifluoromethyl)phenyl)propyl)-1-(1-naphthyl)ethylamine], the “mice that did not exhibit the diarrhea symptom” value (Balb/c mice; 0.05% administration group, free water intake from start of low protein diet, control all 9/9 with diarrhea) is reported as 2 out of 5, the “Ratio of individuals that developed diarrhea” value (Balb/c mice; 0.5% in free water intake from start of low protein diet, control 9/9, p < 0.05 chi-square) is reported as 3/5* and the “fluid absorption (inhibitory rate from remaining solution amount per unit area)” value (rat large intestine loop) is reported as “promoted fluid absorption”.
